From US20090196942A1, “TOPICAL COMPOSITIONS CONTAINING CITRUS JABARA EXTRACT” (priority 2008, published 2009)

Tested on: rat basophil leukemia cells (line RBL-2H3)
Assay: Histamine release from calcium ionophore A23187-stimulated RBL-2H3 cells (Histamine ELISA)
Format: cell-based
Conditions: Calcium Ionophore 2 μM, supernatant histamine by ELISA
Experimental: Citrus Jabara extract was tested to determine its effectiveness in blocking histamine release. Histamine is released by skin and tissues in response to immune challenge. Ingredients that will block the release of histamine improve the soothing properties of skin care products into which they are incorporated. To perform the test, rat basophil leukemia cells (line RBL-2H3) were grown in Dulbecco's Modified Eagle Medium (DMEM) with 10% heat inactivated fetal calf serum, and seeded in 24 well plates at 2.5×10^5 cells/well. The cells were grown overnight and the culture media was removed from the wells and replaced with 1 ml of PIPES buffer (100 mM NaCl, 5 mM KCl, 0.4 mM MgCl2, 1 mM CaCl2, and 5.6 mM D-glucose), pH 7.2. This buffer is known to reduce the spontaneous release of histamine. Stock solutions were prepared: (1) Positive Control: A 10 mM stock solution of diosmetin in DMSO; (2) Active: Citrus Jabara powder—100 mg/ml in DMSO; (3) Calcium Ionophore: 2 mM in DMSO (Sigma Calcium Ionophore A23187). The Control was added to four separate wells varying the final concentration of the Control in each well to 1, 3, 10, and 30 μM. The Active was added to four other wells in varying percentage concentrations ranging from 0.01%, .05%, 0.1%, and 0.5% w/v in each plate. One well was left untreated with cells only. Another single well contained DMSO at a final concentration of less than 1% v/v. […]

Which inhibition at 30 µM does the source give for `COc1ccc(-c2cc(=O)c3c(O)cc(O)cc3o2)cc1O` [diosmetin] here?
The inhibition at 30 µM was 85%.
